Entries after “also recorded” stand apart in the source; their conditions may differ.
Columns and labels:
[1] = tested on: rat small intestine α-glucosidase; experiment: Rat α-glucosidase assay (4-nitrophenol release from pNPG); assay type: biochemical; conditions: for α-glucosidase inhibitory activity (in words): SAR discussion; for IC50: rat small intestine α-glucosidase, means of three replicates ± standard deviation
Protocol: Based on the reported method of Lossow et al., rat small intestine α-glucosidase (EC 3.2.1.20) was prepared. The in-vitro activity was determined by the measurement of 4-nitrophenol which was released from para-nitrophenyl α-D glucopyranoside. The preparation of 200 µL was performed as follows: the enzyme solution (190 µL, 0.15 units/ml), different concentrations of target compounds (1, 10, 20, 50, 100, 500 and 1000 µM (5 µL), potassium phosphate buffer. Final compounds were dissolved in DMSO (not exceed than 5% of final volume) and pre-incubated at 37 °C, p-nitrophenyl glucopyranoside and then substrate (5 µL, 3 mM), was added to the enzyme solution and incubated for further one hour at 37 °C. Finally, by using Cytation 3 hybrid microplate reader (BioTek, USA) any change in the absorbance was measured at 405 nm. By using GraphPadprism 6.0 (SanDiego, California, USA) (https://www.graphpad.com/scientificsoftware/prism/) was used to obtain IC50 values of tested compounds.

α-glucosidase = experiment: Kinetic analysis (Lineweaver-Burk and secondary plot); assay type: biochemical, rat
Protocol: Modes of enzyme inhibition were determined by recording the effect of various concentrations of the substrates 1, 2.5, 5 or 10 mM pNPG for α-glucosidase on Lineweaver–Burk plots using calculated Vmax and Km. For inhibition test of α-glucosidase: the concentrations applied for compounds 10k was 0.1, 1, 5 and 10 nM. Inhibition constants (Ki) were determined by depicting the secondary plot of Km against various concentrations of inhibitors.
The activity of […] (PNPG) was investigated in the presence and absence of compound 10k.

HDF = experiment: Cytotoxicity against normal cell line; assay type: cell-based

| SMILES | α-glucosidase inhibitory activity (in words) [1] | IC50 [1] [µM] | melting point [°C] | folds more active than standard drug (acarbose) ([1]; ratio of IC50 values against acarbose) [folds] | mode of inhibition (α-glucosidase) | cytotoxicity (HDF) |
| --- | --- | --- | --- | --- | --- | --- |
| CCOC(=O)c1c(SCc2cn(CC(=O)Nc3cccc(OC)c3)nn2)nnc(-c2ccccc2)c1-c1ccccc1 [Compound 10e, Ethyl 3-(((1-(2-((3-methoxyphenyl)amino)-2-oxoethyl)-1H-1,2,3-triazol-4-yl)methyl)thio)-5,6-diphenylpyridazine-4-carboxylate] |  | 35.7 ± 3.9 | 155 to 157 |  |  |  |
| CCOC(=O)c1c(SCc2cn(CC(=O)Nc3cccc(C#N)c3)nn2)nnc(-c2ccccc2)c1-c1ccccc1 [Compound 10n, Ethyl 3-(((1-(2-((3-cyanophenyl)amino)-2-oxoethyl)-1H-1,2,3-triazol-4-yl)methyl)thio)-5,6-diphenylpyridazine-4-carboxylate] |  | > 250 | 196 to 198 |  |  |  |
| CCOC(=O)c1c(SCc2cn(CC(=O)Nc3ccccc3Cl)nn2)nnc(-c2ccccc2)c1-c1ccccc1 [10 h, Ethyl 3-(((1-(2-((2-chlorophenyl)amino)-2-oxoethyl)-1H-1,2,3-triazol-4-yl)methyl)thio)-5,6-diphenylpyridazine-4-carboxylate] |  | 14.9 ± 1.9 | 161 to 163 |  |  |  |
| CCOC(=O)c1c(SCc2cn(CC(=O)Nc3cccc([N+](=O)[O-])c3)nn2)nnc(-c2ccccc2)c1-c1ccccc1 [Compound 10p, Ethyl 3-(((1-(2-((3-nitrophenyl)amino)-2-oxoethyl)-1H-1,2,3-triazol-4-yl)methyl)thio)-5,6-diphenylpyridazine-4-carboxylate] |  | 84 ± 13.2 | 201 to 203 |  |  |  |
| CCOC(=O)c1c(SCc2cn(CC(=O)Nc3cccc(C)c3)nn2)nnc(-c2ccccc2)c1-c1ccccc1 [Compound 10b, Ethyl 3-(((1-(2-oxo-2-(m-tolylamino)ethyl)-H-1,2,3-triazol-4-yl)methyl)thio)-5,6-diphenylpyridazine-4-carboxylate] |  | 58.9 ± 7.5 |  |  |  |  |
| C[C@H]1O[C@H](O[C@H]2[C@H](O)[C@@H](O)[C@@H](O[C@H]3[C@H](O)[C@@H](O)C(O)O[C@@H]3CO)O[C@@H]2CO)[C@H](O)[C@@H](O)[C@@H]1N[C@H]1C=C(CO)[C@@H](O)[C@H](O)[C@H]1O (stereo partly drawn) [Acarbose, reference compound] |  | 170 ± 23.1 |  |  |  |  |
| CCOC(=O)c1c(SCc2cn(CC(=O)Nc3ccc(F)cc3)nn2)nnc(-c2ccccc2)c1-c1ccccc1 [10 g, Ethyl 3-(((1-(2-((4-fluorophenyl)amino)-2-oxoethyl)-1H-1,2,3-triazol-4-yl)methyl)thio)-5,6-diphenylpyridazine-4-carboxylate] |  | 37.5 ± 7.2 | 211 to 213 |  |  |  |
| CCOC(=O)c1c(SCc2cn(CC(=O)Nc3ccc(C)cc3)nn2)nnc(-c2ccccc2)c1-c1ccccc1 [Compound 10c, Ethyl 3-(((1-(2-oxo-2-(p-tolylamino)ethyl)-1H-1,2,3-triazol-4-yl)methyl)thio)-5,6-diphenylpyridazine-4-carboxylate] |  | > 250 | 207 to 209 |  |  |  |
| CCOC(=O)c1c(SCc2cn(CC(=O)Nc3ccc(C(C)C)cc3)nn2)nnc(-c2ccccc2)c1-c1ccccc1 [Compound 10d, Ethyl 3-(((1-(2-((4-isopropylphenyl)amino)-2-oxoethyl)-1H-1,2,3-triazol-4-yl)methyl)thio)-5,6-diphenylpyridazine-4-carboxylate] |  | 86.5 ± 7.3 | 183 to 185 |  |  |  |

The next lines start with results.

| α-glucosidase inhibitory activity (in words) [1] | IC50 [1] [µM] | melting point [°C] | folds more active than standard drug (acarbose) ([1]; ratio of IC50 values against acarbose) [folds] | mode of inhibition (α-glucosidase) | SMILES | cytotoxicity (HDF) |
| --- | --- | --- | --- | --- | --- | --- |
| no inhibitory activity | > 250 | 200 to 202 |  |  | CCOC(=O)c1c(SCc2cn(CC(=O)Nc3cccc(Cl)c3)nn2)nnc(-c2ccccc2)c1-c1ccccc1 [Compound 10i, Ethyl 3-(((1-(2-((3-chlorophenyl)amino)-2-oxoethyl)-1H-1,2,3-triazol-4-yl)methyl)thio)-5,6-diphenylpyridazine-4-carboxylate] |  |
|  | 35.6 ± 8.9 | 147 to 149 |  |  | CCOC(=O)c1c(SCc2cn(CC(=O)Nc3ccccc3)nn2)nnc(-c2ccccc2)c1-c1ccccc1 [Compound 10a, Ethyl 3-(((1-(2-oxo-2-(phenylamino)ethyl)-1H-1,2,3-triazol-4-yl)methyl)thio)-5,6-diphenylpyridazine-4-carboxylate] |  |
| active | 47.1 ± 5.6 | 221 to 223 |  |  | CCOC(=O)c1c(SCc2cn(CC(=O)Nc3ccc([N+](=O)[O-])cc3)nn2)nnc(-c2ccccc2)c1-c1ccccc1 [Compound 10q, Ethyl 3-(((1-(2-((4-nitrophenyl)amino)-2-oxoethyl)-1H-1,2,3-triazol-4-yl)methyl)thio)-5,6-diphenylpyridazine-4-carboxylate] |  |
|  | 21 ± 5.3 | 195 to 197 |  |  | CCOC(=O)c1c(SCc2cn(CC(=O)Nc3ccc(Cl)cc3)nn2)nnc(-c2ccccc2)c1-c1ccccc1 [Compound 10j, Ethyl 3-(((1-(2-((4-chlorophenyl)amino)-2-oxoethyl)-1H-1,2,3-triazol-4-yl)methyl)thio)-5,6-diphenylpyridazine-4-carboxylate] |  |
| no activity | > 250 | 212 to 214 |  |  | CCOC(=O)c1c(SCc2cn(CC(=O)Nc3ccc([N+](=O)[O-])c(C)c3)nn2)nnc(-c2ccccc2)c1-c1ccccc1 [Compound 10r, Ethyl 3-(((1-(2-((3-methyl-4-nitrophenyl)amino)-2-oxoethyl)-1H-1,2,3-triazol-4-yl)methyl)thio)-5,6-diphenylpyridazine-4-carboxylate] |  |
|  | 25.2 ± 2.5 | 230 to 232 |  |  | CCOC(=O)c1c(SCc2cn(CC(=O)Nc3ccc(OC)cc3)nn2)nnc(-c2ccccc2)c1-c1ccccc1 [Compound 10f, Ethyl 3-(((1-(2-((4-methoxyphenyl)amino)-2-oxoethyl)-1H-1,2,3-triazol-4-yl)methyl)thio)-5,6-diphenylpyridazine-4-carboxylate] |  |
|  | 1.7 ± 0.12 | 224 to 226 | 100 | uncompetitive | CCOC(=O)c1c(SCc2cn(CC(=O)Nc3ccc(Br)cc3)nn2)nnc(-c2ccccc2)c1-c1ccccc1 [Compound 10k, Ethyl 3-(((1-(2-((4-bromophenyl)amino)-2-oxoethyl)-1H-1,2,3-triazol-4-yl)methyl)thio)-5,6-diphenylpyridazine-4-carboxylate] | not toxic; also recorded: No toxicity |
| active | 14.1 ± 3.3 | 185 to 187 |  |  | CCOC(=O)c1c(SCc2cn(CC(=O)Nc3cc(Cl)cc(Cl)c3)nn2)nnc(-c2ccccc2)c1-c1ccccc1 [10 L, Ethyl 3-(((1-(2-((3,5-dichlorophenyl)amino)-2-oxoethyl)-1H-1,2,3-triazol-4-yl)methyl)thio)-5,6-diphenylpyridazine-4-carboxylate] |  |
| active | 27.7 ± 3 | 166 to 168 |  |  | CCOC(=O)c1c(SCc2cn(CC(=O)Nc3ccc(Cl)c(Cl)c3)nn2)nnc(-c2ccccc2)c1-c1ccccc1 [10 m, Ethyl 3-(((1-(2-((3,4-dichlorophenyl)amino)-2-oxoethyl)-1H-1,2,3-triazol-4-yl)methyl)thio)-5,6-diphenylpyridazine-4-carboxylate] |  |

— paper PMC10294378, “Synthesis, α-Glucosidase inhibitory activity and docking studies of Novel Ethyl 1,2,3-triazol-4-ylmethylthio-5,6-diphenylpyridazine-4-carboxylate derivatives” (BMC Chemistry, 2023)
